Measured values as given in patent US5045566A, “Novel imidate insecticides” (ICI Americas Inc., priority 1989, dated 1991).

What was measured:
Format in all cases: in vivo
[1] = tested on: Housefly [Musca domestica]; test: Housefly contact mortality in dishes (HF), 48 hours; settings: μg of test compound per 25 female flies
Outline: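 LC50 (μg compound per 25 female flies) derives from dosage-mortality curves of 48 h kill. Flies, females 1-2 days old, were held 25 per cage over a dish coated with dried acetone deposit, starting at 100 μg per cage and descending.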

[2] = tested on: Black Bean Aphid [Aphis fabae (Scop.)]; test: Black bean aphid spray test on nasturtium (BBA), 48 hours; settings: percent of test compound in sprayed solution
Outline: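 LC50, given as percent test compound in the sprayed liquid, was calculated from dosage-mortality curves using concentrations from 0.05% downward. Sprays in 50:50 acetone-water went to runoff on ~5 cm nasturtiums carrying 25-50 aphids of mixed ages, one day after infestation. Deaths were counted 48 h later under greenhouse conditions.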

[3] = tested on: Tobacco Budworm [Heliothis virescens (Fabricius)] eggs; test: Tobacco budworm eggs (TBW-E); settings: percent in solution; 2-day old eggs
Outline: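 Step 1: dip 2-day old egg patches in acetone test solutions (top concentration 0.1%). Step 2: hold in dishes with rearing medium at 78° F. Step 3: record mortality after control hatch and feeding.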

[4] = tested on: Cabbage Looper [Trichoplusia ni (Hubner)]; test: Cabbage looper leaf dip (CL), 3-5 days; settings: percent in solution, second-instar larvae
Outline: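 Squash cotyledons dipped in test solution (acetone-water 50-50, ≤0.1%), dried, offered to 5 second-instar larvae; mortality after 3-5 days gives LC50.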

[5] = tested on: Aster Leafhopper [Macrosteles fascifrens (Stal)]; test: Aster leafhopper on dipped oat seedlings (LH), 48 hours; settings: percent in solution, adults/nymphs
Outline: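 LC50 values, given as percent of test compound in the dip solution, were derived from dosage-mortality curves over concentrations from 0.05% downward. Mortality was counted 48 hours after ten leafhopper adults/nymphs were enclosed on treated seedlings. The seedlings were oats, about 10 cm tall, briefly dipped in 50-50 acetone-water.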

[6] = tested on: Maize weevil [Sitophilus zeamais (Motschulsky)]; test: Maize weevil on dipped corn seeds (MW), 48 hours; settings: percent in solution, adult weevils
Outline: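 LC50, given as percent of compound in dipping solution, comes from dosage-mortality curves over concentrations descending from 0.01%. Four corn seeds soaked 2-3 s in 50:50 acetone:water solution were dried and held with 10 adult weevils, about 25° C, mortality read after 48 h.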

[7] = tested on: Rice water weevil [Lissorhoptrus oryzophilus (Kuschel)]; test: Rice water weevil topical (RWW), 48 hours; settings: μg of test compound per weevil, female adults
Description: The compounds in Tables 1 and 2 above were tested for insecticidal activity using the following testing procedures. LC50 values, based on the results of these tests and calculated according to dosage-mortality curves, are expressed in Table 3.
Rice water weevil [Lissorhoptrus oryzophilus (Kuschel)]:
Test compounds were diluted in acetone. Droplets (1 ul) of test solutions were applied to the ventral abdomens of ten female adult weevils. The treated weevils were placed in containers with wet cotton balls and rice foliage. The containers were covered and kept at a temperature of about 25° C. Mortality was recorded after 48 hours. Test concentrations ranged from […] down to that at which 50% mortality occurred. The LC50 values are expressed below in Table 3 under the heading "RWW" in terms of μg of test compound per weevil.

[8] = tested on: Tobacco Budworm [Heliothis virescens (Fabricius)] larvae; test: Tobacco budworm larvae, contact (TBW-C), 5 days; settings: percent in solution, second-instar larvae
Outline: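 Cotton cotyledons dipped 2–3 s in compound in 50-50 acetone-water, dried, then infested with 5 second-instar larvae and held 5 days at high humidity. Mortality scored; LC50 from dosage-mortality curves, expressed as percent compound in solution, concentrations from 0.1% downward.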

Row | Compound | LC50 HF [1] [µg] | LC50 BBA [2] [%] | LC50 TBW E (eggs) [3] [%] | LC50 CL [4] [%] | LC50 LH [5] [%] | LC50 MW [6] [%] | LC50 RWW [7] [µg] | LC50 TBW C (contact) [8] [%]
1 | CC(C)C(=Nc1ccc(C(F)(F)F)cc1)OCc1cccc(Oc2ccccc2)c1 [Compound 68] | 37 | 0.0003 | 0.009 | 0.006 | 0.0001 | > 0.01 | 0.15 | –
2 | CCC(=Nc1ccc(F)c(Cl)c1)OCc1cccc(Oc2ccccc2)c1 [Compound 85] | 7 | 0.0017 | > 0.1 | 0.004 | 0.003 | > 0.01 | > 2.5 | –
3 | CC(C)C(=Nc1ccc(F)c(Cl)c1)OCc1cccc(Oc2cccc(F)c2)c1 [Compound 125] | 12 | 0.05 | 0.025 | 0.0007 | > 0.05 | > 0.01 | > 2.5 | –
4 | CC(C)C(=Nc1ccc(F)c(Cl)c1)OCc1cccc(Oc2ccc(F)cc2F)c1 [Compound 191] | 29 | 0.001 | 0.04 | 0.00023 | > 0.05 | 0.004 | > 2.5 | –
5 | CC(C)C(=Nc1c(F)c(F)c(F)c(F)c1F)OCc1cccc(Oc2ccc(F)cc2)c1 [Compound 198] | 52 | – | > 0.1 | 0.0005 | 0.05 | 0.003 | > 2.5 | –
6 | CC(C)C(=Nc1ccc(Cl)c(Cl)c1)OCc1ccc(F)c(Oc2ccc(F)cc2)c1 [Compound 289] | 10 | 0.0003 | 0.006 | 0.00007 | 0.0003 | > 0.01 | 0.082 | –
7 | CC(C)C(=Nc1ccc(F)c(F)c1)OCc1ccc(F)c(Oc2ccc(Cl)cc2)c1 [Compound 295] | 7.8 | 0.0003 | 0.01 | 0.00004 | 0.0001 | 0.0053 | > 2.5 | 0.0005
8 | CC(C)C(=Nc1ccc(Cl)c(Cl)c1)OCc1ccc(F)c(Oc2ccc(Cl)cc2)c1 [Compound 296] | 38 | 0.0003 | 0.025 | 0.00025 | 0.0003 | – | 0.14 | 0.00045
9 | CC(C)C(=Nc1ccc(F)c(Br)c1)OCc1ccc(F)c(Oc2ccc(Cl)cc2)c1 [Compound 298] | 13 | – | 0.015 | 0.0001 | 0.0001 | 0.008 | > 2.5 | 0.0008
10 | CC(C)C(=Nc1ccc(F)c(C(F)(F)F)c1)OCc1ccc(F)c(Oc2ccccc2)c1 [Compound 300] | 14 | 0.0003 | 0.024 | 0.0003 | 0.00002 | 0.01 | 0.075 | 0.001
11 | CC(C)C(=Nc1ccc(F)c(Cl)c1F)OCc1ccc(F)c(Oc2ccc(F)cc2)c1 [Compound 330] | 5 | 0.0001 | 0.037 | 0.00012 | < 0.05 | 0.001 | 0.06 | 0.00035
12 | CC(C)C(=Nc1ccc(OC(F)(F)F)cc1)OCc1ccc(F)c(Oc2ccccc2)c1 [Compound 338] | 26 | 0.0003 | 0.01 | 0.000065 | – | 0.0053 | 0.044 | 0.00037
13 | CC(C)C(=Nc1cccc(Br)c1)OCc1ccc(F)c(Oc2ccccc2)c1 [Compound 387] | < 100 | 0.0006 | 0.05 | 0.0012 | – | > 0.01 | > 2.5 | –
14 | CC(C)C(=Nc1ccc(Cl)cc1)OCc1ccc(F)c(Oc2ccc(Cl)cc2)c1 [Compound 391] | < 100 | 0.0006 | 0.035 | 0.00029 | – | > 0.01 | > 2.5 | –
15 | C=C(C)C(=Nc1ccc(C(F)(F)F)cc1)OCc1ccc(F)c(Oc2ccccc2)c1 [Compound 431] | 9.8 | 0.0003 | 0.025 | 0.00017 | – | 0.0037 | 0.084 | –
16 | CC(C)C(=Nc1ccc(C(F)(F)F)c(Br)c1)OCc1ccc(F)c(Oc2ccc(Cl)cc2)c1 [Compound 433] | < 100 | 0.0003 | 0.02 | 0.00017 | – | 0.005 | 0.078 | –
17 | CC(C)C(=Nc1ccc(F)c(Cl)c1F)OCc1ccc(F)c(Oc2ccccc2)c1 [Compound 451] | 3.6 | 0.001 | > 0.1 | 0.0001 | 0.0002 | 0.0051 | 0.065 | 0.00025
18 | CC(C)C(=Nc1ccc(Cl)c(OCC(F)(F)F)c1)OCc1ccc(F)c(Oc2ccc(Cl)cc2)c1 [Compound 452] | > 100 | 0.0003 | < 0.1 | 0.0017 | – | > 0.01 | 0.1 | –
